Patent US8846730B2, “Compounds as cannabinoid receptor ligands” (priority 2008, dated 2014)
Like-named read-outs stand apart in the source and are kept apart here.

What was measured:
[1] = target: rat CB2 receptors (HEK cells) (Rattus norvegicus (Rat), UniProt Q9QZN9); assay: rat CB2 cyclase functional assay (HitHunter cAMP); format: cell-based
Protocol: The cyclase functional assays were performed using the HitHunter™ cAMP assay kit from DiscoveRx (Fremont, Calif.) according to vendor's protocol. Briefly, HEK cells expressing CB2 or CB1 receptors (rat or human) were detached using cell dissociation buffer (Invitrogen, Carlsbad, Calif.), dispersed and placed in suspension at 10,000 cells per well in 96 well plates prior to the assay. Cell suspensions were incubated at 37° C. for 20 min with variable concentrations of test ligands and or 10 μM CP 55,940-positive control in the presence of a fixed concentration of forskolin (18 μM for rat CB2 and 37 μM for rat CB1) in Dulbescco's phosphate-buffered saline (Invitrogen, Carlsbad, Calif.) supplemented with bovine serum albumin (0.01% final concentration). The reactions were terminated by the addition of lysis buffer and the luminescence was detected following the procedure according to the manufacturer's instructions. EC50 values were calculated using sigmoidal dose-response curve fitting from Prism (GraphPad).

[2] = target: human CB2 receptors (Homo sapiens (Human), UniProt P34972); assay: human CB2 radioligand binding assay ([3H]CP 55,940 competition)
Outline: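 Displacement of 0.5 nM [3H]CP 55,940 over 0.01 nM-10 μM test compound, measured on human CB2 membranes from stably transfected HEK293 cells. Incubation 90 min at 30 °C in Tris/EDTA/MgCl2/BSA, pH 7.4, then filter-bound radioactivity counted; 10 μM unlabeled CP 55,940 defined nonspecific binding.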

[3] = target: rat CB2 receptors (Rattus norvegicus (Rat), UniProt Q9QZN9); assay: rat CB2 radioligand binding assay ([3H]CP 55,940 competition); settings: HEK293 membranes, 0.5 nM [3H]CP 55,940
Outline: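 Membranes from HEK293 cells stably expressing rat CB2 (20 μg protein/well) were incubated 45 min at 30 °C with 0.5 nM [3H]CP 55,940 and five displacer concentrations, in pH 7.4 Tris buffer with 0.5 mg/mL BSA. Bound radioactivity was measured by filtration. Nonspecific binding was defined with 10 μM unlabeled CP 55,940.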

[4] = target: rat CB1 receptors (HEK cells) (Rattus norvegicus (Rat), UniProt P20272); assay: rat CB1 cyclase functional assay (HitHunter cAMP); format: cell-based
[5] = HEK293 membranes, 0.5 nM [3H]CP 55,940, read-out: human CB2 (Ki)
[6] = HEK cells, forskolin 18 μM, read-out: rat CB2 cyclase (EC50)

Sequence of human CB2 receptors (P34972 whole entry): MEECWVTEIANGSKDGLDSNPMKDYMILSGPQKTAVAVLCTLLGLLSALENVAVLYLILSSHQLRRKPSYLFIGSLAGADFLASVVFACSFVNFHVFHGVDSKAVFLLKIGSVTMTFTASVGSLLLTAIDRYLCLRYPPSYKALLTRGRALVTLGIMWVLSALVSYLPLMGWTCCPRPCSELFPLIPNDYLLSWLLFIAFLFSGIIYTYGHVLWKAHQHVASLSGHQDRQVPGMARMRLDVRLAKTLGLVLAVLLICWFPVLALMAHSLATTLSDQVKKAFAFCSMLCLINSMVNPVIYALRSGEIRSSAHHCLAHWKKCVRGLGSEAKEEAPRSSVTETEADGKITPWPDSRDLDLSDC
Sequence of rat CB1 receptors (HEK cells) (P20272 whole entry): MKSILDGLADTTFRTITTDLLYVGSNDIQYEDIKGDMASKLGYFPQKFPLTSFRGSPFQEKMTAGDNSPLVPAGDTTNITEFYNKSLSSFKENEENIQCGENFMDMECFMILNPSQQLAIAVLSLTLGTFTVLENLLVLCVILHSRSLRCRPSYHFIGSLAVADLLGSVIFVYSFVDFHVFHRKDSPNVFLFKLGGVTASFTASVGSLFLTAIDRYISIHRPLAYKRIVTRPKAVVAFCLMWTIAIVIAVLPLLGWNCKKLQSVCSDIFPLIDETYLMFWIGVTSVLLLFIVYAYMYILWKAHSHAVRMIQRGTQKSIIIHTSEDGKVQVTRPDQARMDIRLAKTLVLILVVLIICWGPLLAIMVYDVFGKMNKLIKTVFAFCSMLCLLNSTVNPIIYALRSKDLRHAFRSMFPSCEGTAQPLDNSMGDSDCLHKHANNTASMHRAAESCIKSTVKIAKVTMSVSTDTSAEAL

COCCn1cc(C(C)(C)C)s/c1=N\C(=O)c1cc(C(F)(F)F)ccc1OCc1cnccn1 [Example 41, N-[(2Z)-5-tert-butyl-3-(2-methoxyethyl)-1,3-thiazol-2(3H)-ylidene]-2-(pyrazin-2-ylmethoxy)-5-(trifluoromethyl)benzamide]
EC50 [1]: 4.49 nM
Ki [2, 5]: 45 nM
Ki [3]: 14 nM
EC50 [4]: 5700 nM

CN1C(=O)CC[C@H]1COc1ccc(C(F)(F)F)cc1C(=O)/N=c1\sc(C(C)(C)C)cn1C[C@H]1CCCO1 [Example 43, N-[(2Z)-5-tert-butyl-3-[(2R)-tetrahydrofuran-2-ylmethyl]-1,3-thiazol-2(3H)-ylidene]-2-{[(2S)-1-methyl-5-oxopyrrolidin-2-yl]methoxy}-5-(trifluoromethyl)benzamide]
EC50 [1, 6]: 2.09 nM
Ki [2, 5]: 62 nM
Ki [3]: 3.3 nM
EC50 [4]: 6560 nM

CC(C)(C)c1cn(C[C@H]2CCCO2)/c(=N/C(=O)c2cc(C(F)(F)F)ccc2OC[C@@H]2CCCN2)s1 [Example 44, N-[(2Z)-5-tert-butyl-3-[(2R)-tetrahydrofuran-2-ylmethyl]-1,3-thiazol-2(3H)-ylidene]-2-[(2S)-pyrrolidin-2-ylmethoxy]-5-(trifluoromethyl)benzamide]
EC50 [1]: 0.39 nM
Ki [2, 5]: 4.6 nM
Ki [3]: 2 nM
EC50 [4]: 4730 nM

CCN1CCC[C@H]1COc1ccc(C(F)(F)F)cc1C(=O)/N=c1\sc(C(C)(C)C)cn1C[C@H]1CCCO1 [Example 45, N-[(2Z)-5-tert-butyl-3-[(2R)-tetrahydrofuran-2-ylmethyl]-1,3-thiazol-2(3H)-ylidene]-2-{[(2S)-1-ethylpyrrolidin-2-yl]methoxy}-5-(trifluoromethyl)benzamide]
EC50 [1, 6]: 0.83 nM
Ki [2, 5]: 8.2 nM
Ki [3]: 8.6 nM
EC50 [4]: 5010 nM

CC(C)N1CCC[C@H]1COc1ccc(C(F)(F)F)cc1C(=O)/N=c1\sc(C(C)(C)C)cn1C[C@H]1CCCO1 [Example 46, N-[(2Z)-5-tert-butyl-3-[(2R)-tetrahydrofuran-2-ylmethyl]-1,3-thiazol-2(3H)-ylidene]-2-{[(2S)-1-isopropylpyrrolidin-2-yl]methoxy}-5-(trifluoromethyl)benzamide]
EC50 [1, 6]: 7.32 nM
Ki [2, 5]: 102 nM
Ki [3]: 21 nM
EC50 [4]: 5420 nM

CC(C)(C)c1cn(C[C@H]2CCCO2)/c(=N/C(=O)c2cc(C(F)(F)F)ccc2OC[C@@H]2CCCN2S(C)(=O)=O)s1 [Example 48, N-[(2Z)-5-tert-butyl-3-[(2R)-tetrahydrofuran-2-ylmethyl]-1,3-thiazol-2(3H)-ylidene]-2-{[(2S)-1-(methylsulfonyl)pyrrolidin-2-yl]methoxy}-5-(trifluoromethyl)benzamide]
EC50 [1, 6]: 0.39 nM
Ki [2, 5]: 16 nM
Ki [3]: 3 nM
EC50 [4]: 8650 nM

CC(C)(C)c1cn(C[C@H]2CCCO2)/c(=N/C(=O)c2cc(C(F)(F)F)ccc2OC[C@H]2CCC[N+]2(C)[O-])s1 (stereo partly shown) [Example 49]
EC50 [1, 6]: 0.45 nM
Ki [2, 5]: 24 nM
Ki [3]: 12 nM
EC50 ([4]; HEK cells, forskolin 37 μM, read-out: rCB1 cyclase (EC50)): 7760 nM

CC(C)(O)CCOc1ccc(C(F)(F)F)cc1C(=O)/N=c1\sc(C(C)(C)C)cn1C[C@H]1CCCO1 [Example 50, N-[(2Z)-5-tert-butyl-3-[(2R)-tetrahydrofuran-2-ylmethyl]-1,3-thiazol-2(3H)-ylidene]-2-(3-hydroxy-3-methylbutoxy)-5-(trifluoromethyl)benzamide]
EC50 [1]: 1.21 nM
Ki [2, 5]: 1.3 nM
Ki [3]: 0.5 nM
EC50 [4]: 1870 nM

CN1CCC[C@H]1COc1ccc(C(F)(F)F)cc1C(=S)/N=c1\sc(C(C)(C)C)cn1C[C@H]1CCCO1 [Example 51, N-[(2Z)-5-tert-butyl-3-[(2R)-tetrahydrofuran-2-ylmethyl]-1,3-thiazol-2(3H)-ylidene]-2-{[(2S)-1-methylpyrrolidin-2-yl]methoxy}-5-(trifluoromethyl)benzenecarbothioamide]
EC50 [1, 6]: 0.34 nM
Ki [2, 5]: 1.3 nM
Ki [3]: 0.9 nM
EC50 [4]: 1320 nM

CN1C[C@@H](F)C[C@H]1COc1ccc(C(F)(F)F)cc1C(=O)/N=c1\sc(C(C)(C)C)cn1C[C@H]1CCCO1 [Example 53, N-[(2Z)-5-tert-butyl-3-[(2R)-tetrahydrofuran-2-ylmethyl]-1,3-thiazol-2(3H)-ylidene]-2-{[(2S,4S)-4-fluoro-1-methylpyrrolidin-2-yl]methoxy}-5-(trifluoromethyl)benzamide]
EC50 [1, 6]: 0.12 nM
Ki [2, 5]: 3 nM
Ki [3]: 3.6 nM
EC50 [4]: 1130 nM

CN1C[C@H](F)C[C@H]1COc1ccc(C(F)(F)F)cc1C(=O)/N=c1\sc(C(C)(C)C)cn1C[C@H]1CCCO1 [Example 54, N-[(2Z)-5-tert-butyl-3-[(2R)-tetrahydrofuran-2-ylmethyl]-1,3-thiazol-2(3H)-ylidene]-2-{[(2S,4R)-4-fluoro-1-methylpyrrolidin-2-yl]methoxy}-5-(trifluoromethyl)benzamide]
EC50 [1, 6]: 0.15 nM
Ki [2, 5]: 2 nM
Ki [3]: 1.5 nM
EC50 [4]: 362 nM

CC(C)(C)c1cn(C[C@H]2CCCO2)/c(=N/C(=O)c2cc(C(F)(F)F)ccc2OCc2ccn[nH]2)s1 [Example 56, N-[(2Z)-5-tert-butyl-3-[(2R)-tetrahydrofuran-2-ylmethyl]-1,3-thiazol-2(3H)-ylidene]-2-(1H-pyrazol-5-ylmethoxy)-5-(trifluoromethyl)benzamide]
EC50 [1, 6]: 0.76 nM
Ki [2, 5]: 11 nM
Ki [3]: 5.1 nM
EC50 [4]: 3050 nM

CC(C)(C)c1cn(C[C@H]2CCCO2)/c(=N/C(=O)c2cc(C(F)(F)F)ccc2OCCNCCO)s1 [Example 58, N-[(2Z)-5-tert-butyl-3-[(2R)-tetrahydrofuran-2-ylmethyl]-1,3-thiazol-2(3H)-ylidene]-2-{2-[(2-hydroxyethyl)amino]ethoxy}-5-(trifluoromethyl)benzamide]
EC50 [1]: 0.18 nM
Ki [2, 5]: 34 nM
Ki [3]: 10 nM
EC50 [4]: 2580 nM

CN1CCC[C@H]1COc1ccc(C#N)cc1C(=O)/N=c1\sc(C(C)(C)C)cn1C[C@H]1CCCO1 [Example 59, N-[(2Z)-5-tert-butyl-3-[(2R)-tetrahydrofuran-2-ylmethyl]-1,3-thiazol-2(3H)-ylidene]-5-cyano-2-{[(2S)-1-methylpyrrolidin-2-yl]methoxy}benzamide]
EC50 [1, 6]: 0.13 nM
Ki [2, 5]: 43 nM
Ki [3]: 9.4 nM
EC50 [4]: 2270 nM

CC(COc1ccc(C(F)(F)F)cc1C(=O)/N=c1\sc(C(C)(C)C)cn1C[C@H]1CCCO1)=NOC1CCCCO1 (stereo partly drawn) [Example 63, N-[(2Z)-5-tert-butyl-3-[(2R)-tetrahydrofuran-2-ylmethyl]-1,3-thiazol-2(3H)-ylidene]-2-({2-[(tetrahydro-2H-pyran-2-yloxy)imino]propyl}oxy)-5-(trifluoromethyl)benzamide]
EC50 [1, 6]: 2.15 nM
Ki [2]: 25 nM
Ki [3]: 6.6 nM
EC50 [4]: > 27000 nM

CC(C)(C)c1cn(C[C@H]2CCCO2)/c(=N/C(=O)c2cc(C(F)(F)F)ccc2OC[C@@H]2CNCCO2)s1 [Example 66, N-[(2Z)-5-tert-butyl-3-[(2R)-tetrahydrofuran-2-ylmethyl]-1,3-thiazol-2(3H)-ylidene]-2-[(2S)-morpholin-2-ylmethoxy]-5-(trifluoromethyl)benzamide]
EC50 [1]: 0.37 nM
Ki [2, 5]: 21 nM
Ki [3]: 5.1 nM
EC50 [4]: 5050 nM
